Experimental data from US20080020947A1, “Novel microorganisms having oil biodegradability and method for bioremediation of oil-contaminated soil” (priority 2006, published 2008).

Experiments:
[1] = system: Rodococcus baikoneurensis EN3; assay: Biosurfactant's ability to increase diesel oil degradation by Rodococcus baikoneurensis EN3; format: cell-based; settings: initial diesel 20,000 ppm; acid 10 ppm, 50 ppm and 100 ppm; about 30% without acid
Description: (§1) For this reason, 2-hexyl-3-hydroxy-decanoic acid having 16 carbon atoms according to the present invention was added liquid media each containing 10,000 ppm or 20,000 ppm of diesel oil and mineral medium (NH4NO3, 1 g/L; MgSO4, 0.2 g/L; CaCl2, 0.02 g/L; FeCl2, 0.05 g/L; KH2PO4, 1 g/L; K2HPO4, 1 g/L; pH 7.0). Then, the media were inoculated with each of Rodococcus baikoneurensis EN3 of Example 2 and Gordonia nitida NP1 of Example 6 and cultured at 30° C. for 7 days. Then, an increase in the oil biodegradability of each of the microbial strains was measured using gas chromatography.
FIG. 9 is a graphic diagram showing an increase in the diesel oil degradability of Rodococcus baikoneurensis EN3, caused by the synthetic biosurfactant 2-hexyl-3-hydroxy-decanoic acid, at an initial diesel concentration of 20,000 ppm. In FIG. 9, the initial inoculation level of Rodococcus baikoneurensis EN3 is 6×10^4 cfu/ml, and the initial concentration of diesel oil is 20,000 ppm. Also, the initial concentrations of 2-hexyl-3-hydroxy-decanoic acid are 10 ppm (∘), 50 ppm (□) and 100 ppm (Δ), the symbol “•” indicates a microorganism-uninoculated group (control group 1), and the symbol “▪” indicates a group (control group 2), which was inoculated with microorganisms, but not injected with 2-hexyl-3-hydroxy-decanoic acid.

Gordonia nitida NP1 = assay: Biosurfactant's ability to increase diesel oil degradation by Gordonia nitida NP1; format: cell-based; settings: acid 9 ppm
Description: as §1
FIG. 10 is a graphic diagram showing an increase in the diesel oil degradability of Gordonia nitida NP1, caused by the synthetic biosurfactant 2-hexyl-3-hydroxy-decanoic acid, at an initial diesel concentration of 15,000 ppm. In FIG. 10, the initial inoculation level of […] is 6×10^4 cfu/ml, and the initial concentration of diesel oil is 15,000 ppm. Also, the initial concentrations of 2-hexyl-3-hydroxy-decanoic acid were 9 ppm (▾), 90 ppm (∇) and 900 ppm (▪), the symbol “[…]” indicates a microorganism-uninoculated group (control group 1), and the symbol “∘” indicates a group (control group 2), which was inoculated with microorganisms, but not injected with 2-hexyl-3-hydroxy-decanoic acid. […]

[2] = system: mixed cultured strain of Examples 2, 6 and 7; assay: Microbial growth promotion of biosurfactant 2-hexyl-3-hydroxy-decanoic acid (cfu per ml after culture); format: cell-based; settings: 0.1 in composition of Examples 16 and 17
Description: These examples relate to an experiment of confirming whether the growth of microorganisms having oil biodegradability is promoted due to the addition of biosurfactant 2-hexyl-3-hydroxy-decanoic acid.
In this experiment, the mixed cultured strain of Examples 2, 6 and 7 was added to tryptic soy broth (TSB) and then cultured for 13 hours. In the culture process, the microbial strain was added into a 100-ml flask at an initial concentration of 4.9×10^6 cfu/ml to a work volume of 10 ml, and the inoculation level of the strain was 1% (w/v), i.e., 0.1 ml.
In Comparative Examples 7-10 and Examples 16 and 17, the microbial strain was cultured in media (10 g/L) at 30° C. for 24 hours, and then measured for colony-forming units (cfu) per ml to determine the degree of proliferation of microorganisms.
Specifically, a composition used in Comparative Examples 7-10 consisted of glucose, yeast extract, malt extract, Na2HPO4, KH2PO4, K2HPO4, MgSO4, CaCl2, FeSO4, CoCl2, ZnSO4, CuSO4 and MnSO4, and a composition used in Examples 16 and 17 consisted of glucose, yeast extract, malt extract, Na2HPO4, KH2PO4, K2HPO4, MgSO4, CaCl2, FeSO4, CoCl2, ZnSO4, CuSO4 and MnSO4, to which the biosurfactant 2-hexyl-3-hydroxy-decanoic acid was added.

[3] = Critical micelle concentration; format: physicochemical

For `CCCCCCCC(O)C(CCCCCC)C(=O)O` (centres unmarked) [2-hexyl-3-hydroxy-decanoic acid], the “oil biodegradation rate of the microbial strain with acid added” value [1] was “about 70%”, the “change in diesel oil degradation rate of the microbial strain with acid added” value (Gordonia nitida NP1; 90 ppm and 900 ppm, initial diesel 15,000 ppm and 20,000 ppm (FIGS. 10, 11)) was “great increase” and the “change in oil degradation rate of the microbial strain with acid added” value (Gordonia nitida NP1; initial diesel 20,000 ppm) was “did not show an increase”. For the same molecule, the “effect of addition on growth of the microorganisms” value [2] was “promotion of growth” and the “critical micelle concentration (cmc)” value [3] was 37.1 ppm.
